Laboratory results reported in patent US20150105349A1, “(R)-(-)-1,2-propanediol compositions and methods” (priority 2013, published 2015).
Like-named read-outs stand apart in the source and are kept apart here. Values belong to the molecule of their own block, whether it stands above or below them.

Experiments:
[1] = test system: philtrum skin; experiment: philtrum skin cooling bioassay (subjective coolness rating 0-3); format: in vivo, human; conditions: for Ratio of AUC 75/25% R/S to 25/75% R/S (fold increase in cooling activity): 49% distilled water, 1% ethanol
Source text: The term “alcoholic solvent” refers to a chemical with one to four carbons with at least one hydroxyl group attached to a carbon atom. A reliable place for topical application is the skin above the upper lip (above the vermilion border of the lips), on the philtrum, lateral to the philtrum until the nasolabial folds, and on the lower nostrils (subnasale). This part of the face is known to be densely innervated with cold receptors, second only to the surfaces of the eyeball and anogenitalia. Tingling, cool and cold sensations from the skin may be experienced and rated for time of onset and intensity.
The intervals for recording sensations are 5 to 10 minutes, until two successive zeros are obtained. The results (shown in the Figures) are averaged values of 4 to 6 separate trials in the same individual. The data are plotted using SigmaPlot (Systat Software, Point Richmond, Calif.) and a smoothing function with a negative exponential was used for analysis and statistical fit of the results. The onset of drug action is taken as the time to reach 2 units of coolness intensity, and offset of drug action is the time when coolness intensity drops below 2, after previously surpassing 2 units. […] The duration of cooling action is defined as the offset time minus the onset time and the primary index of effect. As described in Examples, the test compounds were tested at 2 to 10 mg/mL of vehicle.
For assays on the skin, the cooling agent(s) was dissolved in the alcoholic solvent to yield a 2, 2.5, 3, 5 or 10 mg/mL solution. Using a cotton-tipped applicator (e.g. Q-tips®) 0.10 to 0.25 mL of the test solution was applied to the skin above the upper lip, on the philtrum, and lateral to the philtrum up to the nasolabial folds, and the onset and duration of cooling sensations noted. […] The interval for recording sensations was at 5 to 10 minute intervals, until at least two successive zeros were obtained. The results were averaged values of 3 to 6 separate trials in the same individual. The “onset” is the time taken to reach a coolness intensity value of 2. […] The “off-set” is when the coolness intensity drops below 2, and the duration is the time of off-set minus the time of onset. The area under the curve (AUC) gives an estimate of the intensity and duration of drug action and can be obtained from the plotted data using SigmaPlot (Systat Software, Point Richmond, Calif.). The AUC unit is the product of cooling intensity x min.

[2] = target: T1, cloned hTRPM8 channel (human TRPM8 gene, expressed in CHO cells) (Homo sapiens, UniProt Q7Z2W7); experiment: agonist activity on cloned hTRPM8 channel, Fluo-8 calcium kit, FLIPR; format: cell-based
T1 construct: host or cells: CHO cells
Protocol: The in vitro effects of test articles were evaluated on cloned hTRPM8 channel (encoded by the human TRPM8 gene, expressed in CHO cells) using a Fluo-8 calcium kit and a Fluorescence Imaging Plate Reader (FLIPR^TETRA™) instrument. […] The total number of carbons in these trialkylphosphine oxides ranged from 12 to 15.
To further examine solvent-receptor interactions, stock solutions of 1-7 [1-(Diisopropyl-phosphinoyl)-heptane] were prepared in dimethyl sulfoxide (DMSO) or DMSO containing 10% or 30% by volume of the three isomers of 1,2-propanediol, (R/S-PD, R-PD, and S-PD) and stored frozen. Six dose levels were tested ranging from 0.003 to 3 μM. Ten μl of the test article solution were added to 40 μl of cells in HBPS in glass-lined 384-well compound plates, and placed into the FLIPR instrument for the fluorescence readout (Molecular Devices Corporation, Union City, Calif.).

[3] = test system: periorbital skin and skin above the cheekbone; experiment: cosmetic wipe over periorbital skin and skin above the cheekbone, six female subjects; format: in vivo, human; conditions: 10 mg/mL in water (50%), 10% (S)-, 40% (R)-1,2-propanediol
Protocol: Six female subjects working at a cosmetics company volunteered to try topical applications of 1-7 and/or 1-8, formulated at 10 mg/mL in water (50%) and 10% (S)-1,2-propanediol, 40% (R)-1,2-propanediol wt/wt. The liquid was put on a cotton square and wiped over the periorbital skin and the skin above the cheekbone. All the subjects remarked on a refreshing coolness on the skin at the sites of application within 2 min after application. There was a “wow” effect, that was considered pleasant and stimulating. […] Four of the six subjects said they felt more “awake and energetic.”

[4] = target: TRPM8 receptor (Homo sapiens, UniProt Q7Z2W7); conditions: cited from earlier work
[5] = test system: rodents; conditions: oral; cited from earlier work
[6] = test system: humans; conditions: based on intravenous infusion studies; cited from earlier work
[7] = test system: dorsal surface of the tongue; conditions: 6 subjects; 100-fold variation in individual sensitivity; cited from earlier work
[8] = test system: itch (contact dermatitis) on the scalp; experiment: topical application to scalp itch (contact dermatitis after hair dye), one individual; format: in vivo, human; conditions: 5 mg/mL in 1% ethanol-99% (R)-1,2-propanediol, Yorker spout bottle
Protocol: An individual developed intense itch (contact dermatitis) on the scalp at the base of the skull after use of hair dye. A cotton-tipped stick was used to apply CPS-410 or CPS-412, 5 mg/mL dissolved in a 1% ethanol-99% (R)-1,2-propanediol, to the site of itch. The itch sensations were suppressed within 5 min after application of either solution and this effect lasted for at least 8 hr. In a second experiment, the solutions were applied using a plastic bottle with a conical Yorker spout. This allowed more precise droplet delivery of the solution to the site of itch. […] The advantage of liquid formulation is the ease of uniform delivery to the inflamed site, a method not achievable with cream or ointment. Itch symptoms of hair and fur occur in seborrheic dermatitis, psoriasis, insect bites, canine pruritus, and allergic dermatitis. Liquid formulations containing (R)-1,2-propanediol and a cooling agent may be therapeutically valuable in these conditions.

[9] = test system: philtrum skin; experiment: philtrum skin cooling bioassay (subjective coolness rating 0-3); format: in vivo, human
[10] = test system: axillary skin lesion of plaque psoriasis (itch, burning); experiment: topical application to axillary plaque psoriasis lesion, one subject; format: in vivo, human; conditions: 2% in 1% ethanol-99% (R)-1,2-propanediol, swab stick, first application at night
Source text: A person with an 8-year history of plaque psoriasis complained of an axillary skin lesion that itched, had burning sensations, and kept them awake at night. Their condition was severe and chronic. Their parent complained that they had to vacuum their bedroom every day in order to remove flaking skin debris. […] They volunteered to try CPS-148, 2% dissolved in 1% ethanol-99% (R)-1,2-propanediol, and was given instructions on how to apply the solution to their site of itch with a swab stick (Q-tip™). They claimed after the first time of application at night the burning sensations and itch disappeared within 5 to 10 min and they were able to have a good nights sleep. They continued to use the solution on an “as-needed basis” for one month and claimed that they slept much better than before.

[11] = TRPM8 receptor assay, read-out: EC50 μM (95% C, L.)
[12] = 10 mg/mL in (R)-1,2-propanediol

T1 sequence (Q7Z2W7 whole entry): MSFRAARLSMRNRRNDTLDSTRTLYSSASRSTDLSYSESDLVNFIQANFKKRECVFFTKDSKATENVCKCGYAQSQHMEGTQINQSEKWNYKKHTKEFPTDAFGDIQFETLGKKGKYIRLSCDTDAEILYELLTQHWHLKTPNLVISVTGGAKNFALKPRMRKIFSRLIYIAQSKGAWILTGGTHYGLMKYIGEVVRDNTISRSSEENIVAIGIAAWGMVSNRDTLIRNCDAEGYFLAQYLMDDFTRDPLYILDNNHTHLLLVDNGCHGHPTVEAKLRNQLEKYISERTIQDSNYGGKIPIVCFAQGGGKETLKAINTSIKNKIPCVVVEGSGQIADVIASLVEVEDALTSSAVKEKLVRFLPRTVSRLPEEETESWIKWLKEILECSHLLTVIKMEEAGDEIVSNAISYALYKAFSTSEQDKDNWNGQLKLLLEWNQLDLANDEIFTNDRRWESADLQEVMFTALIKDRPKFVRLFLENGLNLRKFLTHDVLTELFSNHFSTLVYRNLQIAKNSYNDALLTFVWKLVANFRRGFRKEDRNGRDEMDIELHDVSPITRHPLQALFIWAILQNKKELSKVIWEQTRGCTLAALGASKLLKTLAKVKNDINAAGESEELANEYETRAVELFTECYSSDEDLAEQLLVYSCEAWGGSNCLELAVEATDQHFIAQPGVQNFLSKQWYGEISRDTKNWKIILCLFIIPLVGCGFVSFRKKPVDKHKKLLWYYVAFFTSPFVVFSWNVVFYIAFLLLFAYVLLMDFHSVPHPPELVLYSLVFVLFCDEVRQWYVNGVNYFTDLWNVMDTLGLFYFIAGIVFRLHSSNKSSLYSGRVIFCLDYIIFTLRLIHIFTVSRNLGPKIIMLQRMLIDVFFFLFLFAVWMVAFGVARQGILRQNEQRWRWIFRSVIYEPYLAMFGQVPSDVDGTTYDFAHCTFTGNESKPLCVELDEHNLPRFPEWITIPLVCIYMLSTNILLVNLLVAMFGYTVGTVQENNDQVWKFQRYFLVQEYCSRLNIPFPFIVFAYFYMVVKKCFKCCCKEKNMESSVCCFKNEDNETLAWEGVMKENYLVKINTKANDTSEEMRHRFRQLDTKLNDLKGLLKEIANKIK
TRPM8 receptor, sequence (Q7Z2W7 whole entry): as above

Potency Relative to I-menthol ([2]; TRPM8 receptor assay): 4.7 | EC50 [2, 11]: 0.8 µM
Molecule: CCCCCCP(=O)(C(C)CC)C(C)CC (stereo not drawn) [CPS-147, 1-(Di-sec-butyl-phosphinoyl)-hexane]
Ratio of AUC 75/25% R/S to 25/75% R/S (fold increase in cooling activity) [1]: 1.6

Potency Relative to I-menthol ([2]; TRPM8 receptor assay): 0.3 | EC50 [2, 11]: 14.5 µM
Molecule: CCCCP(=O)(C(C)CC)C(C)CC (stereo not drawn) [2-4]
Ratio of AUC 75/25% R/S to 25/75% R/S (fold increase in cooling activity) [1]: 1.9

Potency Relative to I-menthol ([2]; TRPM8 receptor assay): 2.9 | EC50 [2, 11]: 1.3 µM
Molecule: CCCCCCCCP(=O)(C(C)CC)C(C)CC (stereo not drawn) [2-8]

agonism at the TRPM8 ion channel [2]: activates TRPM8 | Potency Relative to I-menthol ([2]; TRPM8 receptor assay): 3.4 | EC50 [2, 11]: 1.1 µM
Molecule: CCCCCCCP(=O)(C(C)CC)C(C)CC (stereo not drawn) [CPS-148, 1-(Di-sec-butyl-phosphinoyl)-heptane]
Ratio of AUC 75/25% R/S to 25/75% R/S (fold increase in cooling activity) [1]: 2.3 | time to disappearance of burning sensations and itch [10]: 5 to 10 min

Potency Relative to I-menthol ([2]; TRPM8 receptor assay): 2.2 | EC50 [2, 11]: 1.7 µM
Molecule: CCCCCP(=O)(C(C)CC)C(C)CC (stereo not drawn) [2-5]
Ratio of AUC 75/25% R/S to 25/75% R/S (fold increase in cooling activity) [1]: 1.4

The remaining lines, values behind:

Molecule: CCCCCCCP(=O)(C(C)C)C(C)C [1-7, 1-(Diisopropyl-phosphinoyl)-heptane]
Ratio of AUC 75/25% R/S to 25/75% R/S (fold increase in cooling activity) [1]: 1.6 | ratio of the EC50 for the R versus S enantiomers of 1,2-propanediol ([2]; C.L. overlap): about 2 | EC50 ([2]; HBPS, 30% volume series, read-out: EC50 (95% C.L.)): 1.6 µM | Potency Relative to I-menthol ([2]; TRPM8 receptor assay): 5.4 | EC50 [2, 11]: 0.7 µM | EC50 ([2]; stock in DMSO containing 30% by volume R-PD, read-out: EC50 (95% C.L.)): 2.2 µM | EC50 ([2]; stock in DMSO containing 30% by volume R/S-PD, read-out: EC50 (95% C.L.)): 2.9 µM | EC50 ([2]; stock in DMSO containing 30% by volume S-PD, read-out: EC50 (95% C.L.)): 4.4 µM | irritation or redness on the skin after applications [3]: no irritation or redness | time facial skin felt cool and dry after application ([3]; all subjects): at least one hour

Molecule: CCCCCP(=O)(C(C)C)C(C)C [1-5]
Ratio of AUC 75/25% R/S to 25/75% R/S (fold increase in cooling activity) [1]: 1.5 | Potency Relative to I-menthol ([2]; TRPM8 receptor assay): 0.7 | EC50 [2, 11]: 5.6 µM

Molecule: CCO [ethanol]
inhibition of TRPM8 receptor response to (−)-menthol ([4]; 0.5% ethanol in the medium): 50% | TRPM8 receptor response to (−)-menthol ([4]; 3% concentration of ethanol): almost totally lost

Molecule: CC(O)CO (racemic) [racemic 1,2-propanediol]
median lethal dose [5]: about 25 mL/kg of body weight | estimated safe dose [6]: 1 g per kg body weight per day

Molecule: CC(C)[C@@H]1CC[C@@H](C)C[C@H]1O (single isomer, unassigned) [(−)-menthol, reference compound]
cooling duration ([1]; 10 mg/mL in 1,3-propanediol): 13 ± 1 min | cooling duration [1, 12]: 21 ± 2 min | average threshold for cooling on tongue (Threshold, μg) [7]: 0.25 µg

Molecule: CCCOC(=O)[C@@H](C)NC(=O)[C@@H]1C[C@H](C)CC[C@H]1C(C)C [CPS-410, (R)-2-[((1R,2S,5R)-2-isopropyl-5-methyl-cyclohexanecarbonyl)-amino]-propionic acid n-propyl ester]
sensations of coolness after application to scalp [8]: produced sensations of coolness

Molecule: (R)-(−)-1,2-propanediol [(R)-1,2-propanediol]
effect on ethanol inhibition of WS-5 cooling ([1]; added at 10%, 20% and 40% vol/vol to ethanolic solution of WS-5 10 mg/mL): reversed the ethanol inhibition in a dose-dependent relationship

Molecule: CCCCOC(=O)[C@@H](C)NC(=O)[C@@H]1C[C@H](C)CC[C@H]1C(C)C [CPS-412, (R)-2-[((1R,2S,5R)-2-isopropyl-5-methyl-cyclohexanecarbonyl)-amino]-propionic acid n-butyl ester]
sensations of coolness after application to scalp [8]: less noticeable

Molecule: CCNC(=O)C1CC(C)CCC1C(C)C (stereo not drawn) [WS-3, 2-Isopropyl-5-methyl-cyclohexanecarboxylic acid ethylamide]
duration of robust cooling ([9]; 20 mg/mL in 97% (R)-1,2-propanediol-3% ethanol, with prickling and stinging sensations): 38 ± 3 min | cooling effect ([9]; 20 mg/mL in absolute ethanol): did not produce significant cooling

Molecule: CCOC(=O)CNC(=O)[C@@H]1C[C@H](C)CC[C@H]1C(C)C [WS-5, [((1R,2S,5R)-2-isopropyl-5-methyl-cyclohexanecarbonyl)-amino]-acetic acid ethyl ester, reference compound]
cooling effect ([1]; 10 mg/mL in 100% ethanol): did not produce any cooling effect

Molecule: CCOC(=O)[C@@H](C)NC(=O)[C@@H]1C[C@H](C)CC[C@H]1C(C)C [CPS-369, (R)-2-[((1R,2S,5R)-2-isopropyl-5-methyl-cyclohexanecarbonyl)-amino]-propionic acid ethyl ester]
Cooling Activity % (relative to (R)-1,2-propanediol) ([1]; 10 mg/mL in 1,3-propanediol, inactive = did not exceed 2 units of coolness): inactive | Cooling Activity % (relative to (R)-1,2-propanediol) [1, 12]: 100% | Cooling Activity % (relative to (R)-1,2-propanediol) ([1]; 10 mg/mL in (S)-1,2-propanediol, based on AUC): 47% | Cooling Activity % (relative to (R)-1,2-propanediol) ([1]; 10 mg/mL in ethanol, inactive = did not exceed 2 units of coolness): inactive | Cooling Activity % (relative to (R)-1,2-propanediol) ([1]; 10 mg/mL in isopropanol, inactive = did not exceed 2 units of coolness): inactive | Cooling Activity % (relative to (R)-1,2-propanediol) ([1]; 10 mg/mL in n-propanol, inactive = did not exceed 2 units of coolness): inactive | Cooling Activity % (relative to (R)-1,2-propanediol) ([1]; 10 mg/mL in racemic 1,3-butanediol): 10%

Molecule: CCCCCCP(=O)(C(C)C)C(C)C [1-6]
Ratio of AUC 75/25% R/S to 25/75% R/S (fold increase in cooling activity) [1]: 1.7 | Potency Relative to I-menthol ([2]; TRPM8 receptor assay): 1.6 | EC50 [2, 11]: 2.4 µM

Molecule: CCCCCCCCCP(=O)(C(C)C)C(C)C [1-9]
Potency Relative to I-menthol ([2]; TRPM8 receptor assay): 4.0 | EC50 [2, 11]: 0.9 µM
